Assay results as given in patent US11352396B2, “Antimicrobial peptides and methods of using same” (Zoetis Services LLC, priority 2017, dated 2022).

Tests used:
cRBC = assay type: cell-based, canine
In short: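 Percent lysis, measured by absorbance at 405 nm, used 1% Triton X-100 as full effect and phosphate buffer as zero. Peptides spanned 50 µM–0.05 µM and were held with plasma-depleted washed erythrocytes at 37 °C for 1 h.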

E. coli ATCC 25922 = assay type: cell-based; conditions: E. coli 25922, Table 6
Protocol: (§1) Peptides according to SEQ ID NOs as listed in Table 1 were prepared by a commercial manufacturer (CS Bio, Menlo Park, Calif.) using solid phase synthesis. Antimicrobial activity was assessed by determining the Minimal Inhibitory Concentration (MIC) against S. aureus and E. coli. Briefly, Microbroth MICs were performed using CLSI methodology (VET01-S2). For S. aureus and E. coli ATCC strains, TSA with 5% lysed horse blood agar was used for overnight culturing at 37° C. ambient air. A 0.5 mM stock for each peptide was made with cell culture water, 0.01% acetic acid and serially diluted and spotted (10 μL) in a 96-well plate for in assay dose titration concentration of 50 μM to 0.05 μM. 0.5 McFarland Standard of each strain was diluted 1:250 in Mueller-Hinton Broth (MHB). 90 μL of culture suspension was then added upon drug in the 96-well plate for overnight incubation for 18-20 hours. The MIC was determined visually at the first well of no visible growth at the corresponding concentration.

[1] = system: MSSP (Methicillin-Susceptible Staphylococcus pseudintermedius); experiment: MIC against selected strains of MSSP; assay type: cell-based; design: MIC MSSP 49051 / MIC MSSP 81923 / MIC MSSP 84250 / Effect on MSSP 86000 / Effect on MSSP 72036 / Effect on MSSP 78032: unit not given beside the values; Effect on MSSP 71990 / Effect on MSSP 86001 / Effect on MSSP 72191 / Effect on MSSP 76986 / Effect on MSSP 77378 / Effect on MSSP 81923 / Effect on MSSP 84250 / Effect on MSSP 84658: unit: µM; conditions: for SP 49051: S. pseudintermedius 49051, Table 6; for Effect on MSSP 71990: strain 71990, Table 5; for Effect on MSSP 72036: strain 72036, Table 5; for Effect on MSSP 72191: strain 72191, Table 5; for Effect on MSSP 76986: strain 76986, Table 5; for Effect on MSSP 77378: strain 77378, Table 5; for Effect on MSSP 78032: strain 78032, Table 5; for Effect on MSSP 81923: strain 81923, Table 5; for Effect on MSSP 84250: strain 84250, Table 5; for Effect on MSSP 84658: strain 84658, Table 5; for Effect on MSSP 86000: strain 86000, Table 5; for Effect on MSSP 86001: strain 86001, Table 5
In short: (§2)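 MIC read by eye as the first well showing no growth after 18–20 h incubation. Cultures at 0.5 McFarland were diluted 1:250 in Mueller-Hinton broth and exposed to peptide over 50 μM–0.05 μM in the assay, per CLSI VET01-S2 microbroth method.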

[2] = system: MRSP (Methicillin-Resistant Staphylococcus pseudintermedius); experiment: MIC against selected strains of MRSP; assay type: cell-based; design: key to MIC MRSP 72192 / MIC MRSP 76923 / MR 71994 / Mr 88493 / MR 72035 / MR 72192 / MR 76923 / MR 79882 / MR 80279 / MR 81926 / MR 86002 / MR 87665: MIC in μM (visual, first well with no growth); conditions: for MR 71994: MRSP strain 71994, Table 6; for MR 72035: MRSP strain 72035, Table 6; for MR 72192: MRSP strain 72192, Table 6; for MR 76923: MRSP strain 76923, Table 6; for MR 79882: MRSP strain 79882, Table 6; for MR 80279: MRSP strain 80279, Table 6; for MR 81926: MRSP strain 81926, Table 6; for MR 86002: MRSP strain 86002, Table 6; for MR 87665: MRSP strain 87665, Table 6; for Mr 88493: MRSP strain 88493, Table 6
In short: as §2

[3] = system: Canine-derived epithelial keratinocyte (CPEK) cells; assay type: cell-based
In short: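 Viability was read by CellTiter-Glo luminescence after overnight exposure (37 °C, 5% CO2) of canine keratinocytes to a peptide range of 50–0.05 μM. Percent effect used phosphate buffer as the zero control and 0.1% Triton X-100 as the full-effect control.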

S. aureus ATCC 29213 = assay type: cell-based; design: key to SA 29213: MIC in μM (lowest conc. with no visible growth); conditions: S. aureus 29213, Table 6
Protocol: as §1

Row | Substance | cRBC (50 μM) (cRBC) | EC 25922 (E. coli ATCC 25922) | SP 49051 [1] | Effect on MSSP 71990 [1] | Effect on MSSP 72036 [1] | Effect on MSSP 72191 [1] | Effect on MSSP 76986 [1] | Effect on MSSP 77378 [1] | Effect on MSSP 78032 [1] | Effect on MSSP 81923 [1] | Effect on MSSP 84250 [1] | Effect on MSSP 84658 [1] | Effect on MSSP 86000 [1] | Effect on MSSP 86001 [1] | MR 71994 [2] | MR 72035 [2] | MR 72192 [2] | MR 76923 [2] | MR 79882 [2] | MR 80279 [2] | further results
1 | 29 (PKWCFRVCYRGICYRRCRD; Artificial Antimicrobial peptide) [compound 29] | 68.2 | 1.6 µM | 1.6 | 1.6 | 1.6 | 1.6 | 1.6 | 0.8 | 0.8 | 0.8 | 0.8 | 1.6 | 1.6 | 1.6 | 1.6 | 1.6 | 0.8 | 1.6 | 0.8 | 0.8 | MR 81926 [2]: 0.8; MR 86002 [2]: 1.6; MR 87665 [2]: 1.6; Mr 88493 [2]: 1.6; CPEK (50 μM) [3]: 17.5; SA 29213 (S. aureus ATCC 29213): 3.1
2 | 30 (PWCFRVCYRGICYRRCR; Artificial Antimicrobial peptide) [compound 30] | 63.5 | 1.6 µM | 1.6 | 0.8 | 0.8 | 1.6 | 0.8 | 0.8 | 0.8 | 0.8 | 0.8 | 1.6 | 1.6 | 1.6 | 1.6 | 0.8 | 0.8 | 0.8 | 0.8 | 0.8 | MR 81926 [2]: 1.6; MR 86002 [2]: 1.6; MR 87665 [2]: 1.6; Mr 88493 [2]: 1.6; CPEK (50 μM) [3]: 17.0; SA 29213 (S. aureus ATCC 29213): 3.1
3 | 31 (PWCFRVCYRGICYRRCRD; Artificial Antimicrobial peptide) [compound 31] | 43.5 | 1.6 µM | 1.6 | 1.6 | 1.6 | 1.6 | 1.6 | 1.6 | 1.6 | 1.6 | 1.6 | 1.6 | 1.6 | 1.6 | 1.6 | 1.6 | 1.6 | 1.6 | 1.6 | 1.6 | MR 81926 [2]: 1.6; MR 86002 [2]: 1.6; MR 87665 [2]: 1.6; Mr 88493 [2]: 1.6; CPEK (50 μM) [3]: 11.0; SA 29213 (S. aureus ATCC 29213): 3.1
4 | 97 (KRCFRVCYRGICYRRCRD; Artificial Antimicrobial peptide) [compound 97] | 31.2 | 3.1 µM | 3.1 | 3.1 | 3.1 | 3.1 | 1.6 | 1.6 | 3.1 | 3.1 | 3.1 | 3.1 | 1.6 | 1.6 | 1.6 | 3.1 | 3.1 | 1.6 | 1.6 | 3.1 | MR 81926 [2]: 1.6; MR 86002 [2]: 3.1; MR 87665 [2]: 3.1; Mr 88493 [2]: 3.1; CPEK (50 μM) [3]: 12.9; SA 29213 (S. aureus ATCC 29213): 6.2
5 | 98 (KWCVRVCYRGICYRRCRD; Artificial Antimicrobial peptide) [compound 98] | 35.0 | 1.6 µM | 1.6 | 1.6 | 1.6 | 1.6 | 1.6 | 1.6 | 1.6 | 1.6 | 1.6 | 1.6 | 1.6 | 1.6 | 1.6 | 3.1 | 1.6 | 1.6 | 0.8 | 1.6 | MR 81926 [2]: 1.6; MR 86002 [2]: 1.6; MR 87665 [2]: 1.6; Mr 88493 [2]: 1.6; CPEK (50 μM) [3]: 9.3; SA 29213 (S. aureus ATCC 29213): 3.1
